Like-named read-outs stand apart in the source and are kept apart here.
What was measured:
OR10/OR7 = OR10/OR7 (Anopheles gambiae, UniProt B5U0U7+Q7QCC7); experiment: Ca2+-imaging of stable HEK293T cell line OR10/OR7; format: cell-based; conditions: for inhibition at 4 µM: HEK-293T, compound applied at 4 μM, read-out: Percent Inhibition OR10 OR7; for IC50: Table B, read-out: IC50 OR10
How it was run: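 Stable HEK293T line co-expressing OR10/OR7, plated 2 days on poly-D-lysine, loaded with Ca-4 dye 1.5 hr at room temperature. Compounds premixed into odorant in HBSS and applied on FDSS6000. Ca2+ rise followed by fluorescence at 525 nm (excitation 485 nm).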

Or47a/Or83b = biological target: T1, Or47a/Or83b (Drosophila melanogaster, UniProt P81921+Q9VNB5); experiment: Ca2+-imaging of stable Flip-In T-Rex cell line Or47a/Or83b; format: cell-based; conditions: for IC50: read-out: IC50 OR47a; for inhibition at 4 µM: read-out: Percent Inhibition OR47a OR83b
T1 construct: Full-length cDNAs for mosquito (Anopheles gambiae) odorant receptor (OR1, OR2, OR7, OR8, OR28), and fly (Drosophila melanogaster) odorant receptor (Or47a, Or83b); expressed in transfected cells
T1 sequence (P81921 1-385): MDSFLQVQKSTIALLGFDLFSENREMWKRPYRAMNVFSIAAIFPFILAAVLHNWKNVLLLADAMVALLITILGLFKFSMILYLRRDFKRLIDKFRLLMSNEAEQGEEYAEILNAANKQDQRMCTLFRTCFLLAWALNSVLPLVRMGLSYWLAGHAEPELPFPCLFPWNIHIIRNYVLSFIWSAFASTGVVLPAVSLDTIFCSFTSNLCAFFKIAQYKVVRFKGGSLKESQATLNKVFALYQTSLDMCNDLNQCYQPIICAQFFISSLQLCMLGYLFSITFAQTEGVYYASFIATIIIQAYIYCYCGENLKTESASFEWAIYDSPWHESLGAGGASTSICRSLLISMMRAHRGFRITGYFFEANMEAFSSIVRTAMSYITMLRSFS
T1 sequence (Q9VNB5 1-486): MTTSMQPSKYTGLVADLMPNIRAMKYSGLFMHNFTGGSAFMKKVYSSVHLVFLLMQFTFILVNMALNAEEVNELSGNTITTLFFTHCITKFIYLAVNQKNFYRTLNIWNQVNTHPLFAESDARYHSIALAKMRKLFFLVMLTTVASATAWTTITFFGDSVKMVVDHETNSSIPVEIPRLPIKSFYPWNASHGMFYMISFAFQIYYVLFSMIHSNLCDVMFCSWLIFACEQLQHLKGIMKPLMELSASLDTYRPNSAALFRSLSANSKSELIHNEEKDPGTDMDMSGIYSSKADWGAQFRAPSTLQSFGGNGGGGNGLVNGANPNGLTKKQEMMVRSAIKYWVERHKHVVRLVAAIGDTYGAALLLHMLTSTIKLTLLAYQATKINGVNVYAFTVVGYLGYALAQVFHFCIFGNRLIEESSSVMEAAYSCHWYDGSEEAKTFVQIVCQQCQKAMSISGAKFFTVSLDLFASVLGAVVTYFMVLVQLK
How it was run: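 Calcium responses were read on an FDSS6000 (485 nm excitation, 525 nm emission) after Ca-4 loading for 1.5 h at room temperature. Cells were tetracycline-induced Flp-In T-REx lines stably carrying fly Or47a/Or83b or mouse 5HT3, plated 2 days ahead; compounds were co-delivered in HBSS odorant solution.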

OR10/OR7, sequence (Q7QCC7 whole entry): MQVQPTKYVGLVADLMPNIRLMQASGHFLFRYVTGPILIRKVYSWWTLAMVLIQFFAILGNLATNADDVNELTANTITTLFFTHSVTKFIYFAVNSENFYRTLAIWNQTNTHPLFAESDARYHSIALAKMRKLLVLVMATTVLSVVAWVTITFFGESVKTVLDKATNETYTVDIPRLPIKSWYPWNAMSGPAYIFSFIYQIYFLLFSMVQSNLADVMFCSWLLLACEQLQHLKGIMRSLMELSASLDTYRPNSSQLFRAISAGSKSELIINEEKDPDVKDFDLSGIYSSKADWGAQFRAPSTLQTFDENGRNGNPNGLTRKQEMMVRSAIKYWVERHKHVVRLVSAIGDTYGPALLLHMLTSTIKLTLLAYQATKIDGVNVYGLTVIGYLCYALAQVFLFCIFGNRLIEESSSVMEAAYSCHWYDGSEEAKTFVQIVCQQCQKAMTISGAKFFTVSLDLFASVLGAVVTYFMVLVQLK
OR10/OR7, sequence (B5U0U7 entry or part of it): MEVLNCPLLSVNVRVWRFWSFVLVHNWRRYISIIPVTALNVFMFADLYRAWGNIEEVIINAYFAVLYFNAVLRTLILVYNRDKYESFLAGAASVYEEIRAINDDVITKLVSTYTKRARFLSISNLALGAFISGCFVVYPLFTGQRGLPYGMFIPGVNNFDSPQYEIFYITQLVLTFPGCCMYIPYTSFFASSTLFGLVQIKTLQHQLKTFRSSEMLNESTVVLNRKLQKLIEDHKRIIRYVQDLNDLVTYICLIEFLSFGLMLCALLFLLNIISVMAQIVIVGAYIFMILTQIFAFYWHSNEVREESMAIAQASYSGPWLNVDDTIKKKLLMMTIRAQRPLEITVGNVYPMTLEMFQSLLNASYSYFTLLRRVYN

Cc1ccc(-n2nc(C)c(CCC(=O)N3CCc4ccccc4C3)c2C)cc1Cl [RU-0026074]
inhibition at 4 µM (OR10/OR7): 26 to 50%
IC50 (Or47a/Or83b; Table B): > 1000 nM
inhibition at 4 µM (Or47a/Or83b; compound applied at 4 μM): 51 to 74%

COc1ccc(C(=O)c2ccccc2)c(O)c1O [RU-0001617]
inhibition at 4 µM (OR10/OR7): 51 to 74%
IC50 (OR10/OR7): < 100 nM
IC50 (Or47a/Or83b; Table B): > 1000 nM
inhibition at 4 µM (Or47a/Or83b; compound applied at 4 μM): 51 to 74%

CC(NC(=O)c1cc2n(n1)CCN(Cc1c(Cl)cccc1Cl)C2=O)c1ccccc1 (centres unmarked) [RU-0045115]
inhibition at 4 µM (OR10/OR7): < 25%
inhibition at 4 µM (Or47a/Or83b; compound applied at 4 μM): 26 to 50%

COC(=O)C(Cc1ccccc1)NC(=O)C1CC1(c1ccccc1)c1ccccc1 (centres unmarked) [RU-0028029]
inhibition at 4 µM (OR10/OR7): 26 to 50%
IC50 (Or47a/Or83b; Table B): > 1000 nM
inhibition at 4 µM (Or47a/Or83b; compound applied at 4 μM): > 75%

Cc1cc(C)c2c(c1C(=O)N1CCC3(CC1)C(=O)NCN3c1ccccc1)CC(C)(C)C2=O [RU-0025771]
inhibition at 4 µM (OR10/OR7): 26 to 50%
IC50 (Or47a/Or83b): > 1000 nM
inhibition at 4 µM (Or47a/Or83b): > 75%

COCCCN(CC(=O)N1CCc2sccc2C1c1ccc(OC)cc1)C(=O)C(C)(C)CCl (centres unmarked) [RU-0069950]
inhibition at 4 µM (OR10/OR7): > 75%
IC50 (OR10/OR7): < 100 nM
IC50 (Or47a/Or83b; Table B): > 1000 nM
inhibition at 4 µM (Or47a/Or83b; compound applied at 4 μM): 51 to 74%

Cc1ccc(CN(Cc2ccc(F)cc2)C(=O)CN(C(=O)NC(C)(C)C)C2CC2)s1 [RU-0052360]
inhibition at 4 µM (OR10/OR7): > 75%
IC50 (OR10/OR7): > 1000 nM
inhibition at 4 µM (Or47a/Or83b; compound applied at 4 μM): 26 to 50%

COc1ccc(-c2nnc(SCc3ccc(C#N)cc3)n2-c2ccc(C)cc2)cc1 [RU-0046426]
inhibition at 4 µM (OR10/OR7): 26 to 50%
inhibition at 4 µM (Or47a/Or83b; compound applied at 4 μM): 26 to 50%

COCCNC(=O)c1ccc(CSc2nnc(-c3ccc(C)cc3)n2-c2ccccc2F)cc1 [RU-0051652]
inhibition at 4 µM (OR10/OR7): 26 to 50%
inhibition at 4 µM (Or47a/Or83b; compound applied at 4 μM): < 25%

COCCN(Cc1cc(Cl)ccc1OS(=O)(=O)c1ccc(F)cc1)C(=O)C1CCC1 [RU-0035287]
inhibition at 4 µM (OR10/OR7): < 25%
IC50 (Or47a/Or83b; Table B): < 100 nM
inhibition at 4 µM (Or47a/Or83b; compound applied at 4 μM): 51 to 74%

COc1ccc(N2CCN(C(=O)C3CC=CCC3C(=O)NCCCCc3ccccc3)CC2)cc1 (centres unmarked) [RU-0026167]
inhibition at 4 µM (OR10/OR7): 26 to 50%
IC50 (Or47a/Or83b; Table B): > 1000 nM
inhibition at 4 µM (Or47a/Or83b; compound applied at 4 μM): 51 to 74%

Cc1ccc(CN(CCc2ccccc2)C(=O)CN(C(=O)NC(C)(C)C)C(C)C)o1 [RU-0072008]
inhibition at 4 µM (OR10/OR7): > 75%
IC50 (OR10/OR7): < 100 nM
inhibition at 4 µM (Or47a/Or83b; compound applied at 4 μM): 26 to 50%

CC(NCc1ccccc1)c1nc2ccccc2c(=O)n1-c1ccc(Cl)cc1 (centres unmarked) [RU-0072535]
inhibition at 4 µM (OR10/OR7): < 25%
inhibition at 4 µM (Or47a/Or83b; compound applied at 4 μM): 26 to 50%

COc1nc(NC(C)C)nc(NC(C)C)n1 [RU-0001534]
inhibition at 4 µM (OR10/OR7): < 25%
IC50 (Or47a/Or83b; Table B): > 1000 nM
inhibition at 4 µM (Or47a/Or83b; compound applied at 4 μM): 51 to 74%

COCCCN(CC(=O)N1CCc2sccc2C1COc1cccc(OC)c1)C(=O)c1ccccc1OC (centres unmarked) [RU-0036294]
inhibition at 4 µM (OR10/OR7): 51 to 74%
IC50 (OR10/OR7): > 1000 nM
inhibition at 4 µM (Or47a/Or83b; compound applied at 4 μM): 51 to 74%

C=C[C@@](C)(O)CCC1C(=C)CCC2[C@@](C)(CO)CCC[C@]12C (some centres unmarked) [RU-0001327]
inhibition at 4 µM (OR10/OR7): 51 to 74%
IC50 (OR10/OR7): > 1000 nM
inhibition at 4 µM (Or47a/Or83b; compound applied at 4 μM): < 25%

COc1cc(OC)cc(C2NC(=O)N(C)C3=C2C(=O)N(C2CCCCC2)C3)c1 (centres unmarked) [RU-0047750]
inhibition at 4 µM (OR10/OR7): > 75%
IC50 (OR10/OR7): < 100 nM
inhibition at 4 µM (Or47a/Or83b; compound applied at 4 μM): 26 to 50%

CCN(CC)C(=O)Oc1ccc2c(ccn2Cc2cccc(C)c2)c1NC(=O)[C@H](C)OC(C)=O [RU-0075468]
inhibition at 4 µM (OR10/OR7): 26 to 50%
IC50 (OR10/OR7): < 100 nM
inhibition at 4 µM (Or47a/Or83b; compound applied at 4 μM): < 25%

CN(C)c1nc(N(C)C)nc(N(C)C)n1 [RU-0000619]
inhibition at 4 µM (OR10/OR7): < 25%
IC50 (Or47a/Or83b; Table B): > 1000 nM
inhibition at 4 µM (Or47a/Or83b; compound applied at 4 μM): 51 to 74%

COc1ccccc1N1CCN(C(=O)c2cc3n(n2)CCN(Cc2c(F)cccc2Cl)C3=O)CC1 [RU-0043595]
inhibition at 4 µM (OR10/OR7): < 25%
IC50 (Or47a/Or83b; Table B): > 1000 nM
inhibition at 4 µM (Or47a/Or83b; compound applied at 4 μM): 51 to 74%

COc1nc(OCC#N)nc(N2CCCCC2)n1 [RU-0006256]
inhibition at 4 µM (OR10/OR7): 51 to 74%
IC50 (OR10/OR7): > 1000 nM
IC50 (Or47a/Or83b; Table B): > 1000 nM
inhibition at 4 µM (Or47a/Or83b; compound applied at 4 μM): 51 to 74%

COCCCN(CC(=O)N1CCc2sccc2C1COc1cccc(OC)c1)C(=O)Cc1ccccc1 (centres unmarked) [RU-0036264]
inhibition at 4 µM (OR10/OR7): < 25%
inhibition at 4 µM (Or47a/Or83b; compound applied at 4 μM): < 25%

CCOC(=O)C(c1ccc(OC)c(OC)c1)C1C=CC(NC(=O)c2ccc3c(c2)OCO3)C1 (centres unmarked) [RU-0049030]
inhibition at 4 µM (OR10/OR7): 26 to 50%
inhibition at 4 µM (Or47a/Or83b; compound applied at 4 μM): 26 to 50%

CN(Cc1ccccc1)C(=O)CCC1CCN(C(=O)CCOc2ccccc2)CC1 [RU-0028727]
inhibition at 4 µM (OR10/OR7): 51 to 74%
IC50 (OR10/OR7): > 1000 nM
IC50 (Or47a/Or83b; Table B): < 100 nM
inhibition at 4 µM (Or47a/Or83b; compound applied at 4 μM): > 75%

CCOCCCN(CC(=O)N(Cc1ccc2c(c1)OCO2)Cc1sccc1C)C(=O)NC(C)(C)C [RU-0052340]
inhibition at 4 µM (OR10/OR7): 51 to 74%
IC50 (OR10/OR7): < 100 nM
inhibition at 4 µM (Or47a/Or83b; compound applied at 4 μM): 26 to 50%

COc1ccc(N2CCN(C(=O)C3CC=CCC3C(=O)NC(c3ccccc3)c3ccccn3)CC2)cc1 (centres unmarked) [RU-0026507]
inhibition at 4 µM (OR10/OR7): < 25%
inhibition at 4 µM (Or47a/Or83b; compound applied at 4 μM): 26 to 50%

CCOC(=O)C(c1cccc(OC)c1)C1C=CC(NC(=O)c2cccs2)C1 (centres unmarked) [RU-0074560]
inhibition at 4 µM (OR10/OR7): < 25%
inhibition at 4 µM (Or47a/Or83b; compound applied at 4 μM): 26 to 50%

CCCCc1nc(CN2CCc3c([nH]c4ccccc34)C2c2cccc(OC)c2OC)c[nH]1 (centres unmarked) [RU-0031879]
inhibition at 4 µM (OR10/OR7): < 25%
IC50 (Or47a/Or83b; Table B): > 1000 nM
inhibition at 4 µM (Or47a/Or83b; compound applied at 4 μM): 51 to 74%

CCOc1ccccc1C(=O)NNC(=O)COc1cc(C)cc(C)c1 [RU-0023245]
inhibition at 4 µM (OR10/OR7): 26 to 50%
IC50 (OR10/OR7): > 1000 nM
IC50 (Or47a/Or83b; Table B): > 1000 nM
inhibition at 4 µM (Or47a/Or83b; compound applied at 4 μM): > 75%

O=C1CN(S(=O)(=O)c2c(F)cc(F)cc2F)CC2c3cccc(F)c3CCN12 (centres unmarked) [RU-0076832]
inhibition at 4 µM (OR10/OR7): 26 to 50%
inhibition at 4 µM (Or47a/Or83b; compound applied at 4 μM): < 25%

Reference: patent publication US20130324522A1, “INSECT ODORANT RECEPTOR ANTAGONISTS” (THE ROCKEFELLER UNIVERSITY, priority 2010, published 2013)
